Results as given in PubChem BioAssay AID493137 (Sanford-Burnham Center for Chemical Genomics, 2011).
Several values for one entry are separate records, joined by “and”; a condition that tells them apart may be missing. Equal values may be shown once. Activity calls are given as the source filed them.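 Rule for the calls: active = compounds whose mean IC50 is under 100 micromolar in the phosphatase inhibition dose series; inactive = the rest.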

Target: Intestinal-type alkaline phosphatase (Homo sapiens) (UniProt P09923)
Sequence (P09923 whole entry, looked up): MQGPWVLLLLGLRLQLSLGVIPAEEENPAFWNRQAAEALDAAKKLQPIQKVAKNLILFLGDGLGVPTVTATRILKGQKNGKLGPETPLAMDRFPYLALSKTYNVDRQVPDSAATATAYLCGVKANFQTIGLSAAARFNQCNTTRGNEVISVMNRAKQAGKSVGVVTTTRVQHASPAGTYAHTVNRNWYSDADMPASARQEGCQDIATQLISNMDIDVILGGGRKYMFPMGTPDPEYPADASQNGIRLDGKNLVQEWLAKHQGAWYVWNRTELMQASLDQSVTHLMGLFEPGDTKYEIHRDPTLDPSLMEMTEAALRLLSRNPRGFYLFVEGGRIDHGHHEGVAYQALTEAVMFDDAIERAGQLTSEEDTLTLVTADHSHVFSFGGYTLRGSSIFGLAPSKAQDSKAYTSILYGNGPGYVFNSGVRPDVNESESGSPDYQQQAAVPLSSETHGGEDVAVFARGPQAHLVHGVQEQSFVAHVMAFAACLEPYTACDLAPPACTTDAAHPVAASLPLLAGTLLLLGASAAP
Assay: human IAP inhibitors, SAR follow-up, biochemical, luminescence (AID 493137)
Settings: purified human IAP, CDP-Star luminescence, 30 min

## COc1cc(C=NNC(=S)Nc2cccc(C(=O)O)c2)ccc1O
  IC50: > 100 µM (inactive)

## Cc1ccc(Nc2nc(-c3ccc(O)c(O)c3)cs2)cc1
  IC50: > 100 µM (inactive)

## Cc1ccc(Cl)cc1Nc1nc(-c2ccc(O)c(O)c2)cs1
  IC50: 24.4 µM

## O=S(=O)(Nc1ncccn1)c1ccc(NC(=S)NCCC(c2ccccc2)c2ccccc2)cc1
  IC50: > 100 µM (inactive)

## COC(=O)C/C=N/N=C1\NC(=O)/C(=C/C(=O)O)S1
  IC50: > 100 µM (inactive)

## FC(F)(F)c1cccc(NC(=S)NCCC(c2ccccc2)c2ccccc2)c1
  IC50: > 100 µM (inactive)

## Oc1ccc(-c2csc(Nc3ccccc3)n2)c(O)c1
  IC50: > 100 µM (inactive)

## O=[N+]([O-])c1ccccc1NC(=S)NN=Cc1ccc(O)c(O)c1
  IC50: 76 µM

## Cc1ccc(Nc2nc(-c3ccc(O)cc3O)cs2)cc1F
  IC50: > 100 µM (inactive)

## COC(=O)/C=C1\SC(N=Nc2c(O)[nH]c3ccccc23)=NC1=O
  IC50: > 100 µM (inactive)

## COc1ccc(-c2csc(Nc3cccc4ccccc34)n2)cc1
  IC50: > 100 µM (inactive)

## COc1cc(C=NN=C2SC(CC(=O)O)C(=O)N2c2ccc(O)cc2)ccc1O (stereo unspecified)
  IC50: > 100 µM (inactive)

## Cc1cc(=O)oc2cc(NC(=S)NCCC(c3ccccc3)c3ccccc3)ccc12
  IC50: > 100 µM (inactive)

## N#CCCn1cc(/C=N/N=C2/NC(=O)C(CC(=O)O)S2)c(-c2ccc(F)cc2)n1 (stereo unspecified)
  IC50: > 100 µM (inactive)

## Cc1ccc(C)c(Nc2nc(-c3ccc(O)cc3O)cs2)c1
  IC50: > 100 µM (inactive)

## COC(=O)/C=C1\S/C(=N/N=C/c2ccc(Cl)cc2)NC1=O
  IC50: > 100 µM (inactive)

## Cc1cc(C)cc(Nc2nc(-c3ccc(O)cc3O)cs2)c1
  IC50: > 100 µM (inactive)

## CCOc1cc(/C=N/N=C2\NC(=O)C(CC(=O)O)S2)ccc1O (stereo unspecified)
  IC50: > 100 µM (inactive)

## COc1cc(C=NNC(=S)Nc2cccc(S(=O)(=O)N(C)C)c2)cc(OC)c1O
  IC50: > 100 µM (inactive)

## Cc1cccc(NC(=S)NN=Cc2ccc3c(c2)OCO3)c1
  IC50: > 100 µM (inactive)

## COc1cccc(Nc2nc(-c3ccc(O)cc3)cs2)c1
  IC50: > 100 µM (inactive)

## COC(=O)/C=C1/S/C(=N/NC(=O)c2ccc(OC)cc2)NC1=O
  IC50: > 100 µM (inactive)

## COC(=O)/C=C1/S/C(=N/NC(=O)c2ccc(Cl)cc2Cl)NC1=O
  IC50: > 100 µM (inactive)

## O=S(=O)(c1ccc(NC(=S)N/N=C/c2ccc(O)c(O)c2)cc1)N1CCOCC1
  IC50: > 100 µM (inactive)

## CCOc1cc(C=N/N=C2/NC(=O)C(CC(=O)O)S2)ccc1OCc1ccccc1Cl (stereo unspecified)
  IC50: > 100 µM (inactive)

## O=S(=O)(c1ccc(NC(=S)N/N=C/c2ccc(O)c(O)c2O)cc1)N1CCOCC1
  IC50: > 100 µM (inactive)

## Oc1ccc(-c2csc(Nc3cccc4ccccc34)n2)cc1O
  IC50: 33 µM and 46.8 µM

## Cc1cccc(Nc2nc(-c3ccc(O)c(O)c3)cs2)c1
  IC50: > 100 µM (inactive)

## O=[N+]([O-])c1ccc(NC(=S)NCCC(c2ccccc2)c2ccccc2)cc1
  IC50: > 100 µM (inactive)

## CC(C)(C)c1ccc(/C=N/N=C2\NC(=O)C(CC(=O)O)S2)cc1 (stereo unspecified)
  IC50: > 100 µM (inactive)

## Cc1ccc2sc(NNC(=O)c3ccc4c(c3)OCCO4)nc2c1C
  IC50: > 100 µM (inactive)

## COc1cc(/C=N/N=C2/SCC(=O)N2c2ccc(O)cc2)ccc1O
  IC50: > 100 µM (inactive)

## Cc1cccc(Nc2nc(-c3ccc(O)c(C(N)=O)c3)cs2)c1
  IC50: > 100 µM (inactive)

## NS(=O)(=O)c1ccc(Nc2nc(-c3ccc(O)cc3O)cs2)cc1
  IC50: > 100 µM (inactive)

## COc1ccc(/C=N/N=C2/NC(=O)C(CC(=O)O)S2)cc1OC (stereo unspecified)
  IC50: > 100 µM (inactive)

## Cc1cccc(NC(=S)NNC(=O)c2ccc3c(c2)OCO3)c1
  IC50: > 100 µM (inactive)

## COc1cc([N+](=O)[O-])ccc1NC(=S)NNC(=O)c1ccc2c(c1)OCO2
  IC50: > 100 µM (inactive)

## COc1ccc(C=NNC(=S)Nc2ccccc2[N+](=O)[O-])cc1O
  IC50: > 100 µM (inactive)

## Cn1c(=S)n(N=Cc2ccc3c(c2)OCO3)c2ccccc21
  IC50: > 100 µM (inactive)

## Cc1ccc(Nc2nc(-c3ccc(O)c(O)c3)cs2)cc1F
  IC50: > 100 µM (inactive)

## Cc1c(Cl)cccc1Nc1nc(-c2ccc(O)c(O)c2)cs1
  IC50: > 100 µM (inactive) and 96.6 µM

## COc1ccc(/C=N/N=C2\NC(=O)C(CC(=O)O)S2)c(OC)c1 (stereo unspecified)
  IC50: > 100 µM (inactive)

## COC(=O)/C=C1/S/C(=N/N=Cc2ccc(N(C)C)cc2)NC1=O
  IC50: > 100 µM (inactive)

## Oc1ccc(-c2csc(Nc3ccc(F)cc3)n2)cc1O
  IC50: > 100 µM (inactive)

## CC(=NNC(=S)Nc1ccccc1)c1ccc2c(c1)OCO2
  IC50: > 100 µM (inactive)

## COC(=O)/C=C1/S/C(=N/NC(=O)c2ccccc2C)NC1=O
  IC50: > 100 µM (inactive)

## COc1cc(C=NNC(=S)Nc2cccc(S(=O)(=O)N(C)C)c2)ccc1O
  IC50: > 100 µM (inactive)

## COC(=O)/C=C1/S/C(=N/NC(=O)c2ccccc2OC)NC1=O
  IC50: > 100 µM (inactive)

## CCOc1ccc(Nc2nc(-c3ccc(O)c(O)c3)cs2)cc1
  IC50: > 100 µM (inactive)

## Oc1ccc(Nc2nc(-c3ccc(O)c(O)c3)cs2)cc1
  IC50: 11.6 µM

## CCN(CC)S(=O)(=O)c1ccc(-c2csc(=Nc3cccc4ccccc34)n2C)cc1
  IC50: > 100 µM (inactive)

## CCOc1cc(C=NNC(=S)NC2CCCCC2)ccc1O
  IC50: > 100 µM (inactive)

## S=C(NCCC(c1ccccc1)c1ccccc1)Nc1ccc(Cl)cc1Cl
  IC50: > 100 µM (inactive)

## Cc1ccc(Nc2nc(-c3ccc(O)c(C(N)=O)c3)cs2)cc1
  IC50: > 100 µM (inactive)

## COC(=O)/C=C1/S/C(=N/NC(=O)c2ccccc2)NC1=O
  IC50: > 100 µM (inactive)

## COc1cc([N+](=O)[O-])ccc1NC(=S)NCCC(c1ccccc1)c1ccccc1
  IC50: > 100 µM (inactive)

## Cc1ccc(-c2ccc(/C=N/N=C3\NC(=O)C(CC(=O)O)S3)o2)c([N+](=O)[O-])c1 (stereo unspecified)
  IC50: > 100 µM (inactive)

## COc1ccc(C(=O)NNC(=S)NC2CCCCC2)cc1OC
  IC50: > 100 µM (inactive)

## NS(=O)(=O)c1ccc(Nc2nc(-c3ccc(O)c(O)c3)cs2)cc1
  IC50: 45.1 µM

## COc1cc(C(=O)NNC(=S)Nc2ccc(S(N)(=O)=O)cc2)cc(OC)c1OC
  IC50: > 100 µM (inactive)

## CN(C)S(=O)(=O)c1cccc(NC(=S)NN=Cc2ccc(O)c(O)c2O)c1
  IC50: > 100 µM (inactive)

## COc1ccc(Cl)cc1Nc1nc(-c2ccc(O)c(O)c2)cs1
  IC50: > 100 µM (inactive)

## Cc1ccc(Nc2nc(-c3ccc(O)cc3O)cs2)cc1C
  IC50: > 100 µM (inactive)

## COC(=O)/C=C1\S/C(=N/N=C/CC(=O)OC)NC1=O
  IC50: > 100 µM (inactive)

## Cc1cccc2sc(NNC(=O)c3ccc4c(c3)OCCO4)nc12
  IC50: > 100 µM (inactive)

## COc1ccc(-c2csc(Nc3cccc4ccccc34)n2)cc1F
  IC50: > 100 µM (inactive)

## O=[N+]([O-])c1ccccc1NC(=S)N/N=C/c1ccc(O)c(O)c1O
  IC50: > 100 µM (inactive)

## Cc1cccc(C)c1NC(=S)N/N=C/c1ccc(O)c(O)c1O
  IC50: > 100 µM (inactive)

## COc1ccc(C=Nn2c(=S)n(C)c3ccccc32)cc1OC
  IC50: > 100 µM (inactive)

## COc1ccc(C=NN=C2SC(CC(=O)O)C(=O)N2c2ccc(O)cc2)cc1 (stereo unspecified)
  IC50: > 100 µM (inactive)

## Cc1ccc(Nc2nc(-c3ccc(O)cc3O)cs2)cc1
  IC50: > 100 µM (inactive)

## Cc1ccc2nc(NNC(=O)c3ccc4c(c3)OCCO4)sc2c1
  IC50: > 100 µM (inactive)

## COc1ccc(NC(=S)NCCC(c2ccccc2)c2ccccc2)cc1
  IC50: > 100 µM (inactive)

## CCc1ccccc1Nc1nc(-c2ccc(O)c(O)c2)cs1
  IC50: 17.8 µM and 14.5 µM

## O=C(O)CC1S/C(=N/N=C/c2ccco2)NC1=O (stereo unspecified)
  IC50: > 100 µM (inactive)

## COc1cc(/C=N/N=C2\NC(=O)C(CC(=O)O)S2)cc(OC)c1OC (stereo unspecified)
  IC50: > 100 µM (inactive)
